Test results reported in patent publication US20240361338A1, “DIAGNOSIS AND TREATMENT OF ECTOPIC ENDOMETRIOSIS” (FERRING B.V., priority 2021, published 2024).

What was measured:
ectopic E-MSCs = experiment: Endothelial differentiation (CD31) of ectopic E-MSCs in co-culture with HUVECs; format: cell-based, human; conditions: ectopic E-MSCs, 100 nM, 24-h treatment, 48 h co-culture with HUVECs
Experimental: FIG. 5: Quinagolide effect on EMSCs endothelial differentiation. A. FACS gating-strategy for the analysis of CD31^+ EMSCs after direct 48 h co-culture with HUVECs. EMSCs are gated as GFP negative population, and CD31 expression is evaluated on the described gated EMSCs after 48 h co-culture with HUVECs as percentage of CD31 APC positive events. B, C and D: Representative flow cytometry micrographs and quantification, expressed as percentage of variation respect to control co-culture, of the effect of 24 h treatment of EMSCs with 25 μM cabergoline, 1 μM sorafenib, 1 μM cabozantinib (B), 100 nM quinagolide (C) and the combination of 5 μM spiperone and 100 nM quinagolide (D) on EMSCs CD31 expression after 48 h of co-culture with HUVECs. Data are represented as mean±SD of at least three independent experiments, performed on different ectopic EMSC lines, and normalized to untreated co-culture. One-way ANova was performed: *=p<0.05 and ***=p<0.001 vs control.
(BSA)-Phosphate Buffered Saline (PBS) (Sigma). For each staining, 100,000 cells were incubated for 20 minutes at 4° C. with FITC, APC or PE-conjugated antibodies against: CD29, CD44, CD73, CD90 (BD Bioscences, Franklin Lakes, NJ, USA); CD31, CD34, CD105, CD140b, CD146, TEK receptor tyrosine kinase (Tie2), Sushi domain-containing protein 2 (SUSD2) (Miltenyi Biotech, Bergisch Gladbach, Germany); CD45 (AbD Serotec, Raleigh, NC, USA), or epithelial cell adhesion molecule (EPCAM) (BioLegend, San Diego, CA, USA). Labelled cells were washed by centrifugation and final pellet was resuspended in 200 μl of 0.1% BSA-PBS before cytofluorimetric analysis. Isotype (Miltenyi Biotec) was used as negative control.
Quinagolide powder (provided by Ferring Pharmaceuticals) was stored at 4° C. and resuspended in dimethylsulphoxide (DMSO) to a stock solution of 1 mM immediately before use. Spiperone powder (Sigma-Aldrich) was resuspended in water to a stock concentration of 1 mM and stored at −20° C. Cabergoline powder (Sigma-Aldrich) was dissolved in DMSO to a stock concentration of 25 mM and stored at −20° C. Sorafenib and cabozantinib (Sigma-Aldrich) were resuspended in DMSO to a final concentration of 10 mM and according to the manufacturer's instructions, and stored at −20° C. and −80° C., respectively. Quinagolide, spiperone and cabergoline were diluted 1:100 (final concentration 100 nM), 1:1000 (final concentration 5 μM) and 1:1000 (final concentration 25 μM) respectively. Quinagolide, cabergoline, sorafenib and cabozantinib and were administered for 24 hours during co-culture experiments, while spiperone was added to culture medium 1 h before quinagolide treatment. For invasion assays, E-MSCs were treated with spiperone 1 h before the cell detachment and quinagolide was added only when cells were plated on Matrigel. […]

endometriotic lesions = conditions: patients with severe endometriosis and hyperprolactinemia (Gomez et al, 2011); cited from earlier work
[1] = system: experimentally induced endometriosis; conditions: Akyol et al., 2016; cited from earlier work
AKT = experiment: Western blot of P-AKT in E-MSC-HUVEC cocultures; format: cell-based, human; conditions: 100 nM quinagolide 24 h
Experimental: FIG. 6: Quinagolide effect on AKT activation. A: Representative western blot analysis and quantification of AKT levels in eutopic and ectopic EMSCs treated for 48 h with 100 nM quinagolide (Q), compared to untreated cells (CTL). B: Representative western blot analysis and quantification of P-AKT levels, normalized to AKT expression, in eutopic and ectopic EMSCs treated for 48 h with 100 nM quinagolide (Q), respect to untreated cells (CTL). C: Representative western blot analysis and quantification of P-AKT levels in HUVECs, ectopic […] basal), and in […] co-culture with HUVECs, treated or not for 24 h with 100 nM quinagolide (Q100 nM). Data are represented as mean±SD of at least two independent experiments, performed on different EMSC lines, and normalized to Vinculin and to untreated cells (CTL). One-way ANOVA was performed: *=p<0.05 and **=p<0.001 vs CTL. Cell pellets were lysed at 4° C. for 15 minutes in RIPA buffer supplemented with protease and phosphatase inhibitors cocktail and PMSF (Sigma-Aldrich). Proteins were quantified using Bradford solution following the manufacturer procedures (Bio-Rad Inc., Berkely, CA, USA) and aliquots of cell lysates containing 50 μg of proteins were run on 4-12% Mini-Protean TGX Stain-Free Gels (Bio-Rad) under reducing conditions and transferred onto PVDF membrane filters using the iBLOT2 system (Life Technologies). […]

CCCN1C[C@@H](NS(=O)(=O)N(CC)CC)C[C@@H]2Cc3c(O)cccc3C[C@H]21 [quinagolide, N,N-diethyl-N′-[(3S,4aS,10aR)-6-hydroxy-1-propyl-1,2,3,4,4a,5,10,10a-octahydrobenzo[g]quinolin-3-yl]sulfamide]
percentage of CD31 expressing E-MSCs after co-culture (ectopic E-MSCs): significantly reduced
size of endometriotic lesions (endometriotic lesions): reduced the size
outcome in experimentally induced endometriosis rat model [1]: successfully tested
AKT phosphorylation (AKT): reduced
